Assay results: ChEMBL document CHEMBL1142235, “Pharmacokinetics and safety of indinavir in human immunodeficiency virus-infected pregnant women” (Antimicrob Agents Chemother, 2007)

Columns and labels:
[1] = Cmax in HIV1 infected pregnant woman during postpartum period at 800 mg three times/day; assay type: ADME, organism-based; parameters: dose 800 mg; conditions: female, human, in vivo
[2] = Cmax in HIV1 infected pregnant woman during antepartum period at 800 mg three times/day; assay type: ADME, organism-based; parameters: dose 800 mg; conditions: female, human, in vivo
Homo sapiens [3] = organism: Homo sapiens; assay: Oral clearance in HIV1 infected pregnant woman during antepartum period at 800 mg three times/day; assay type: ADME, organism-based; conditions: in vivo
Homo sapiens [4] = organism: Homo sapiens; assay: AUC (0-8 hrs) in HIV1 infected pregnant woman during antepartum period at 800 mg three times/day; assay type: ADME, organism-based, Plasma; parameters: dose 800 mg, time < 8 hr; conditions: in vivo
[5] = AUC (0-8 hrs) in HIV1 infected pregnant woman during postpartum period at 800 mg three times/day; assay type: ADME, organism-based; parameters: dose 800 mg, time < 8 hr; conditions: female, human, plasma
[6] = Tmax in HIV1 infected pregnant woman during postpartum period at 800 mg three times/day; assay type: ADME, organism-based; conditions: female, human, in vivo
[7] = Oral clearance in HIV1 infected pregnant woman during postpartum period at 800 mg three times/day; assay type: ADME, organism-based; conditions: female, human, in vivo
[8] = Tmax in HIV1 infected pregnant woman during antepartum period at 800 mg three times/day; assay type: ADME, organism-based; conditions: female, human, in vivo

Cmax [1]: 9270 ng/mL
Cmax [2]: 4370 ng/mL
CL/F (Homo sapiens [3]): 3558 mL/min
AUC (Homo sapiens [4]): 459 µg·min/mL
AUC at 8 h [5]: 23800 ng·h/mL
Tmax [6]: 1.88 h
CL/F [7]: 697 mL/min
Tmax [8]: 1.85 h
SMILES: CC(C)(C)NC(=O)[C@@H]1CN(Cc2cccnc2)CCN1C[C@@H](O)C[C@@H](Cc1ccccc1)C(=O)N[C@H]1c2ccccc2C[C@H]1O.O [INDINAVIR]
